# Data reported in US20250082565A1, “ANTIOXIDANT COSMETIC COMPLEX, COSMETIC COMPOSITION, USE AND METHOD FOR COSMETIC TREATMENT” (Natura Cosméticos S.A., priority 2023, published 2025).
# What was measured:
# [1] = Singlet oxygen suppression (emission at 1270 nm); conditions: Stern-Volmer model; phosphorescence at 1270 nm in ethanol
# Protocol: (§1) The excited state suppression ability was assessed by measuring the transient absorption of triplet states using flash photolysis and by singlet oxygen emission in the near infrared.
# Singlet oxygen suppression: The detector (PMT Hamamatsu R5509—model PC176TSCE005) was cooled to −80° C. and set to 1500 V and the signals were acquired using a proprietary software from SHB Analytics GmbH (Germany). Excitation was performed by a Quantel Brilliant laser (2 w-3 w-Rainbow). Emission from the sample is filtered so that irradiation in the range of from […] is detected. A microcomputer is connected to the system and analysis of the transients is carried out using an ultra-fast acquisition plate. It is important to remember that luminescence emission at 1270 nm is characteristic of singlet oxygen, being the safest method of detecting the presence and reactivity of this species. […]
# To assess the actives' ability of suppressing singlet oxygen (1O2), the near-infrared emission (1270 nm) was measured, which is characteristic of 1O2 and a golden standard for this detection. […]
# The detector (PMT Hamamatsu-model H10330-45) was cooled to −80° C. and set to −800 V and the signals were acquired using a proprietary software from SHB Analytics GmbH (Germany). […] Sample emission is detected in the range of 1270±20 nm. […]
# [2] = Suppression of triplet species (laser flash photolysis); conditions: Stern-Volmer model; 10 μM methylene blue, excitation 660 nm, argon purged; individual actives
# Protocol: as §1
# Triplet suppression: The SHB Laser Flash Photolysis system was used (FIG. 14). A laser pulse (10 mJ/pulse, 10-20 ns) impinges on the sample providing electronic excitation. To assess the formation and the lifetime of excited states or other reactive intermediates, the change in absorbance prior to and after electronic excitation of the sample is monitored by an optical beam (LED) as a function of time. It monitors the disappearance of the species in the fundamental state or the appearance of the excited or radical species. The laser beam is positioned at 90° to the monitoring beam. Shutters are used in both the excitation and monitoring beams to protect the sample from photolysis. The detector in this technique consists of a combination of filters and diode detector. The diode response is read on a digital oscilloscope (Tektronix 2230), which data is subsequently transferred to the microcomputer. The entire equipment is controlled by a microcomputer and the time resolution of the instrument is of about 50 ns. A Quantel Nd: YAG laser (2 w, 3 w Rainbow, pulsed at 3 ns, 80.1% power) was used. […] Readings were taken in a 2 mm×10 mm quartz cuvette. […]
smiles,measurement,setting,value
CC1=C(/C=C/C(C)=C/C=C/C(C)=C/C=C/C=C(C)/C=C/C=C(C)/C=C/C2=C(C)CCCC2(C)C)C(C)(C)CCC1 [Beta-carotene],KSV (singlet oxygen suppression constant),[1],30.5 × 10^4 mg^−1mLs^−1
same,KSt (triplet suppression constant),[2],0.16 ± 0.05 μg^−1μL
